Test results published in patent US20140276107A1, “PHOTODYNAMIC DIAGNOSIS” (Photocure ASA, priority 2011, published 2014).

Tests used:
[1] = test system: normal and Barrett's tissue of the esophagus; assay: Spectrofluorimetry (LIFS) of PpIX fluorescence intensity in the esophagus of patients suffering from Barrett's esophagus; type: in vivo, human; details: for porphyrin (PpIX) fluorescence in normal tissue compared to Barrett's tissue: ALA 20 mg/kg orally 4-5 hours before endoscopy (5 subjects), HAL 8 mM solution by local instillation 2 hours before endoscopy (3 subjects)
Procedure: Spectrofluorimetry (LIFS) measurements (fluorescence intensity of PpIX in the esophagus) were carried out on 8 patients suffering from Barrett's esophagus. The measurements were carried out after oral administration of 5-ALA (ALA) or local instillation of 5-ALA hexyl ester (HAL) and the fluorescence intensity of normal and Barrett's tissue was compared.
LIFS was carried out using the Karl Storz D-light system. Abnormal cells could be clearly delineated against normal tissue due to the porphyrin fluorescence resulting from an accumulation of the ALA or HAL in the abnormal tissue. For this purpose, blue light of a specific spectral composition was introduced into the body via an endoscopic light guide system. • Patient group 1: 5 subjects each received 20 mg/kg body weight ALA orally, 4-5 hours before endoscopy. • Patient group 2: 3 subjects each received a 8 mM solution of HAL in an aqueous buffer by local instillation (100 mg in 50 mL, i.e. 0.2%), 2 hours before endoscopy.

[2] = test system: dysplastic tissue in Barrett's esophagus; details: cited from earlier work

Row | SMILES | porphyrin (PpIX) fluorescence in normal tissue compared to Barrett's tissue ([1]; FIG. 1) | distinction of high-grade dysplastic from non-dysplastic epithelial tissue ([2]; Brand et al. 2002) | detection of high-grade intraepithelial neoplasia and adenocarcinoma ([2]; Stepinac et al. 2003) | detection of low-grade neoplastic tissue ([2]; Stepinac et al. 2003) | specificity for detection of dysplastic tissue ([2]; systemic application of 5-ALA at 20 mg/kg and 30 mg/kg, high rate of false positive fluorescence) | intensity of fluorescence in the normal epithelium, HAL versus ALA ([1]; FIG. 1, normal epithelium, HAL 8 mM local instillation vs ALA 20 mg/kg orally) | fluorescence intensity of PpIX in the Barrett and normal mucosa ([1]; FIG. 2, one of the patients receiving HAL) | intensity of fluorescence in the normal and Barrett epithelium, HAL compared to ALA ([1]; normal and Barrett epithelium, background fluorescence)
1 | NCC(=O)CCC(=O)O [ALA, 5-aminolevulinic acid] | significantly higher in normal tissue compared to Barrett's tissue | can distinguish | effective | not accurate | poor |  |  | 
2 | CCCCCCOC(=O)CCC(=O)CN [HAL, 5-ALA hexyl ester] | significantly higher in normal tissue compared to Barrett's tissue |  |  |  |  | lower | stronger intensity for the normal mucosa | lower intensity of fluorescence
